Values of other authors as cited in patent US20140080923A1, “STEVIA BASED SWEETENING COMPOSITION” (STEVINOL LTD., priority 2011, published 2014).

Conditions: background statement

Structure (SMILES)	sweetness compared with sucrose
C=C1C[C@@]23CC[C@H]4[C@@](C)(CCC[C@@]4(C)C(=O)O[C@@H]4O[C@H](CO)[C@@H](O)[C@H](O)[C@H]4O)[C@@H]2CC[C@]1(O[C@@H]1O[C@H](CO)[C@@H](O)[C@H](O[C@@H]2O[C@H](CO)[C@@H](O)[C@H](O)[C@H]2O)[C@H]1O[C@@H]1O[C@H](CO)[C@@H](O)[C@H](O)[C@H]1O)C3 [rebaudioside A]	~300 times sweeter than sucrose
C=C1C[C@@]23CC[C@H]4[C@@](C)(CCC[C@@]4(C)C(=O)O[C@@H]4O[C@H](CO)[C@@H](O)[C@H](O)[C@H]4O)[C@@H]2CC[C@]1(O[C@@H]1O[C@H](CO)[C@@H](O)[C@H](O)[C@H]1O[C@@H]1O[C@H](CO)[C@@H](O)[C@H](O)[C@H]1O)C3 [stevioside]	~300 times sweeter than sucrose
